Assay results from paper PMC4448987, “A neuroligin-1-derived peptide stimulates phosphorylation of the NMDA receptor NR1 subunit and rescues MK-801-induced decrease in long-term potentiation and memory impairment” (Pharmacology Research & Perspectives, 2015).

What was measured:
[1] = test system: NMDA receptor NR1 subunit (serine 897); experiment: NMDA receptor phosphorylation assay (immunoblot, anti-phospho-Ser897-NR1) in cultured cortical neurons; assay type: cell-based, Wistar rat; conditions: cultured rat cortical neurons, 0.1, 0.3, 1 and 2.7 μmol/L for 5 min, eight independent experiments
Experimental: Cortical neurons were obtained from Wistar rat embryos at embryonic day 19, of both sexes, basically as previously described (Maar et al. [1997]) (see Data S1). Briefly, animals were rendered unconscious by concussive stunning and euthanized by cervical dislocation. Hereafter, the embryonic brains were collected and cortical neurons were dissociated and seeded in 60-mm tissue culture dishes coated with 1 μg/mL of poly-D-lysine (Sigma-Aldrich, St. Louis, MO) and grown for 8 days before treatment. Then, the cultures were stimulated with either the NL1 ectodomain (0.2, 0.6, 1.8, and 5.4 nmol/L) or neurolide-1 (0.1, 0.3, 1, and 2.7 μmol/L) for 5 min. The cells were lysed, and proteins were resolved by sodium dodecyl sulfate-polyacrylamide gel electrophoresis followed by immunoblotting using rabbit anti-Ser897-NR1 antibody (1:500; Millipore, Billerica, MA), mouse anti-β-tubulin antibody (1:50,000; Sigma-Aldrich), and IRDye secondary antibodies (Odyssey, Lincoln, NE). The bands were visualized using the Odyssey CLX Infrared Imaging System (Odyssey). Four independent experiments with stimulation by NL1 ectodomain and eight independent experiments with stimulation by neurolide-1 were performed.

[2] = test system: male Wistar rats; experiment: Spatial memory in the Morris water maze; assay type: in vivo; conditions: rat
Experimental: The Morris water-maze test (Morris [1984]) was performed as previously described (Kraev et al. [2011]) with slight modifications (see Data S1). Male Wistar rats (Charles River), weighing 150–200 g on the day of arrival were used. To investigate for potential effects on memory consolidation, neurolide-1 was injected immediately after the training sessions on day 1 and 2 (n = 12 in each group). To test for potential effects on memory acquisition neurolide-1 was injected 2 h before start of training on training day 1 and 2 (n = 12 in each group). Finally, to test for potential effects on MK-801-induced learning deficiencies neurolide-1 was injected 2 h before start of training on day 2 and 3 in animals, which had received an injection with MK-801 30 min earlier (n = 6–9 in each group). In a slightly modified version of the MK-801 experiments a group of animals received a neurolide-1 injection immediately after the training sessions on day 1, and then a neurolide-1 injection 2 h before start of training on day 2, preceded by an MK-801 injection 30 min earlier (n = 12 in each group). Terminally, rats were rapidly and humanely rendered unconscious by concussive stunning and euthanized by cervical dislocation.
The Morris water maze test (Morris, 1984) was conducted in a 160 cm wide circular black tank placed in a dimly lit room and filled with 21°C water up to 20 cm from the top. The tank was surrounded by visual orientation marks, and a 10 cm wide escape platform was placed 1.5 cm below the water level for it to be unseen. A video camera was placed above the tank and connected to a computerized tracking system (Ethovision 3.1, Noldus IT, Wageningen, Holland). The tank was divided into four equal-size quadrants that also served as starting positions. The latency to locate the platform, time spent swimming, and swimming speed were scored within the defined zones (i.e., total area, quadrants, and a platform circle that was 60 cm in diameter with the center in the original platform location). Prior to training, the rats were handled 2 min daily for 5 days to minimize stress during the experiments.
Reference memory training consisted of three consecutive trials daily for 3 days. Each trial began with placing the animal in the water facing the wall of the pool. The starting position differed for each trial but was identical for all animals. In each trial, the animal was allowed 90 s to locate the platform. […] After each trial, the rats were allowed 20 s of orientation time on the platform and then removed from the pool for 20 s before the next trial was initiated. After the last trial each day, the animals were dried and returned to their home cages.
To test for effects on long-term memory, the animals were tested in a probe trial 24 h after the last reference memory training. In the probe trial, the platform was removed, and the animals began from a position in a quadrant adjacent to the original platform quadrant. The rats were allowed to swim for 60 s, after which the trial was stopped.

[3] = test system: adult male Wistar rats; experiment: Social recognition test; assay type: in vivo; conditions: rat
Experimental: Social memory in animals reflects the ability to recognize conspecifics as familiar or unfamiliar. The social recognition test was performed basically as described previously (Secher et al. [2006]), (see Data S1). […] Rats were handled 5 days prior to the experiment and habituated to the transparent test cages for 1 h before start of experiment. The tests included three trials (T1–3), separated by intertribal periods of 2 and 24 h, with the test rat being introduced to a 3-week-old juvenile conspecific (40–50 g; Charles River) for 4 min each time. Investigative behavior was recorded and used to calculate recognition ratios (RR) as previously described (Kogan et al. [2000]). Retention periods longer than 1 h are believed to result in no or only minimal retention of social memory (Popik and van Ree [1998]; Secher et al. [2006]). Terminally, rats were rapidly and humanely rendered unconscious by concussive stunning and euthanized by cervical dislocation.
Social memory in animals reflects the ability of individuals to recognize conspecifics as familiar or unfamiliar. The animals were handled for 5 days prior to the experiments to minimize stress, habituated to the test cage, and trained to interact with a juvenile rat. Two groups of adult rats were used: a control group and a neurolide-1-treated group. Neurolide-1 (10 mg/kg) or vehicle (saline, 1 ml/kg) was injected subcutaneously (s.c.) two times, 24 and 2 h before the experiment. […] In the first trial, a 3-week-old juvenile male rat was introduced to the experimental adult rat for 4 min, and the time spent investigating the juvenile (e.g., licking, sniffing, chewing, and close following) was scored. Two hours later, a second trial was performed by reintroducing the same juvenile to the test rat to for 4 min, and investigative behavior was recorded. From the two trials, a recognition ratio (RR) was calculated as T2 / (T1 + T2), in which T1 and T2 were the times spent investigating the juvenile during the first and second trials, respectively. […]

## SEGNRWSNSTKGLFQRA [neurolide-1]
[1]
  NR1 phosphorylation on serine 897: induced NR1 phosphorylation proportionally to the increase in peptide concentration
[2]; 10 mg/kg s.c. 2 h before training sessions on days 1 and 2, n = 12
  learning, velocity and memory retention in probe test (memory acquisition): No effect
[2]; 10 mg/kg s.c. immediately after last training session on days 1 and 2, probe test 24 h after last training, n = 12
  learning on day 2 or 3 and memory retention in probe test (memory consolidation): No effect
[2]; MK-801 0.1 mg/kg s.c. with or without neurolide-1 10 mg/kg s.c. (long-term regimen), n = 12
  velocity in the water maze: Neither treatments affected velocity
[2]; neurolide-1 10 mg/kg s.c. 30 min after MK-801 0.1 mg/kg and 2 h before first trial on days 2 and 3, n = 6-9
  effect on MK-801-impaired learning and memory retention, short-term treatment: did not reduce the effect of MK-801
[2]; neurolide-1 10 mg/kg s.c. after training on day 1 and on day 2, 30 min after MK-801 0.1 mg/kg and 2 h before first training session, n = 12
  effect on MK-801-impaired learning (escape latency): attenuated the effect of the NMDA receptor inhibitor on learning
[2]; neurolide-1 10 mg/kg s.c. after training on day 1 and on day 2, 30 min after MK-801 0.1 mg/kg, n = 12
  effect on MK-801-impaired memory in the probe test 24 h after last training session: completely abrogated the effect of MK-801
[3]; 10 mg/kg s.c. 24 and 1 h before first trial, n = 12
  long-term social memory, 24 h after the first trial: did not exhibit an improvement in social memory
[3]; 10 mg/kg s.c. 24 and 1 h before first trial, same juvenile, n = 12, P < 0.001 vs control
  short-term social memory (recognition ratio), intertrial interval 2 h: enhanced social memory
[3]; 10 mg/kg s.c. twice, control test, compared with vehicle group or theoretical value 0.5, n = 12
  recognition ratio with a new unfamiliar juvenile in the second trial: did not lead to a decrease in the RR
